Laboratory results published in PubChem BioAssay AID1259408 (Genetic Toxicology Data Bank (GENE-TOX), 2018).
Active and inactive are the calls of the source. How the calls were made is not given here.

Tested on: GENE-TOX genotoxicity assays, various organisms and cells
Assay: GENE-TOX mutagenicity studies
Conditions: for call: Assay Type: In vivo carcinogenicity studies
[1] = Species/Cell Type: Chinese hamster ovary (CHO) cells, Assay Type: Forward gene mutation at the HPRT locus, Assay Code: CHO+, Evaluation Type: Evaluation B (Post-1980)
[2] = Species/Cell Type: Escherichia coli polA (W3119 vs P3478), Assay Type: Rec-assay, DNA effects (bacterial DNA repair), Assay Code: RE1T, Evaluation Type: Evaluation A (Pre-1980)
[3] = Species/Cell Type: Human lymphocytes, Assay Type: Sister-chromatid exchange (SCE) in vitro, Assay Code: SCL+D, Dose Response: With dose response, Evaluation Type: Evaluation A (Pre-1980)
[4] = Species/Cell Type: Human lymphocytes, Assay Type: Sister-chromatid exchange (SCE) in vitro, Assay Code: SCLT, Evaluation Type: Evaluation B (Post-1980)
[5] = Species/Cell Type: Human, Assay Type: Sister-chromatid exchange (SCE) in vitro, Assay Code: SC1+D, Dose Response: With dose response, Evaluation Type: Evaluation A (Pre-1980)
[6] = Species/Cell Type: Human, Assay Type: Sister-chromatid exchange (SCE) in vitro, Assay Code: SC1T, Evaluation Type: Evaluation B (Post-1980)
[7] = Species/Cell Type: Nonhuman, Assay Type: Sister-chromatid exchange (SCE) in vitro, Assay Code: SC2+D, Dose Response: With dose response, Evaluation Type: Evaluation B (Post-1980)
[8] = Species/Cell Type: Saccharomyces cerevisiae, Assay Type: Mitotic recombination or gene conversion, Assay Code: YEH-, Evaluation Type: Evaluation A (Pre-1980)
[9] = Species/Cell Type: Syrian hamster embryo (SA7/SHE) cells, Assay Type: Cell transformation, viral enhanced, Assay Code: CT7+, Evaluation Type: Evaluation A (Pre-1980)
[10] = Species/Cell Type: Drosophila melanogaster, Assay Type: Sex-linked recessive lethal gene mutation, Assay Code: SRLT, Evaluation Type: Evaluation A (Pre-1980)
[11] = Species/Cell Type: Salmonella typhimurium (one or more of the five standard strains: TA98, TA100, TA1535, TA1537, and TA1538), Assay Type: Histidine reverse gene mutation, Ames assay, Assay Code: SAL+*, Activation: With metabolic activation, Evaluation Type: Evaluation A (Pre-1980)
[12] = Species/Cell Type: Salmonella typhimurium (one or more of the five standard strains: TA98, TA100, TA1535, TA1537, and TA1538), Assay Type: Histidine reverse gene mutation, Ames assay, Assay Code: SALT, Evaluation Type: Evaluation A (Pre-1980)

For O=c1[nH]c(=O)n([C@H]2C[C@H](O)[C@@H](CO)O2)cc1Br, the mutagenic call (Species/Cell Type: Arabidopsis species, Assay Type: Gene mutation, Assay Code: ARMT, Evaluation Type: Evaluation A (Pre-1980)) was “no conclusion”, the mutagenic call (Species/Cell Type: Chinese hamster lung (V79) cells, Assay Type: Forward gene mutation at the HPRT or ouabain locus, Assay Code: V79+, Evaluation Type: Evaluation A (Pre-1980)) was “active; positive” and the mutagenic call [1] was “active; positive”. The mutagenic call (Species/Cell Type: Drosophila melanogaster, Assay Type: Sex-linked recessive lethal gene mutation, Assay Code: SRL+, Evaluation Type: Evaluation A (Pre-1980)) was “active; positive”, the mutagenic call (Species/Cell Type: Drosophila melanogaster, Sex: Male, Assay Type: Heritable translocation test, chromosome aberrations, Assay Code: DHTT, Evaluation Type: Evaluation A (Pre-1980)) was “no conclusion” and the mutagenic call [2] was “no conclusion”. The mutagenic call (Species/Cell Type: Human diploid fibroblasts, Assay Type: Unscheduled DNA synthesis (UDS) in vitro, DNA effects, Assay Code: UDH-, Evaluation Type: Evaluation A (Pre-1980)) was “inactive; negative”, the mutagenic call (Species/Cell Type: Human embryo lung fibroblasts (WI-38 cells), Assay Type: Sister-chromatid exchange (SCE) in vitro, Assay Code: SCW+D, Dose Response: With dose response, Evaluation Type: Evaluation A (Pre-1980)) was “active; positive” and the mutagenic call (Species/Cell Type: Human embryo lung fibroblasts (WI-38 cells), Assay Type: Sister-chromatid exchange (SCE) in vitro, Assay Code: SCW+D, Dose Response: With dose response, Evaluation Type: Evaluation B (Post-1980)) was “active; positive”. The mutagenic call (Species/Cell Type: Human lymphocytes, Assay Type: Micronucleus test in vitro, chromosome aberrations, Assay Code: MN7+, Evaluation Type: Evaluation A (Pre-1980)) was “active; positive”, the mutagenic call [3] was “active; positive” and the mutagenic call [4] was “no conclusion”. The mutagenic call [5] was “active; positive”, the mutagenic call [6] was “no conclusion” and the mutagenic call (Species/Cell Type: Mammalian polychromatic erythrocytes, Assay Type: Micronucleus test, chromosome aberrations, Assay Code: MNT+, Evaluation Type: Evaluation A (Pre-1980)) was “active; positive”. For the same molecule, the mutagenic call (Species/Cell Type: Mouse (C3H/10T1/2) cells, Assay Type: Cell transformation, Assay Code: CTH-, Evaluation Type: Evaluation A (Pre-1980)) was “inactive; negative”, the mutagenic call (Species/Cell Type: Mouse, Sex: Male, Assay Type: Sperm morphology, Assay Code: SPI+, Evaluation Type: Evaluation A (Pre-1980)) was “active; positive” and the call (Species/Cell Type: Nonhuman, Assay Code: CCGT, Evaluation Type: Evaluation A (Pre-1980)) was “no conclusion”. The mutagenic call (Species/Cell Type: Nonhuman, Assay Type: Sister-chromatid exchange (SCE) in vitro, Assay Code: SC2+D, Dose Response: With dose response, Evaluation Type: Evaluation A (Pre-1980)) was “active; positive”, the mutagenic call [7] was “active; positive” and the mutagenic call (Species/Cell Type: Nonhuman, Assay Type: Sister-chromatid exchange (SCE) in vivo, Assay Code: SC3+D, Dose Response: With dose response, Evaluation Type: Evaluation A (Pre-1980)) was “active; positive”. For the same molecule, the mutagenic call (Species/Cell Type: Nonhuman, Assay Type: Sister-chromatid exchange (SCE) in vivo, Assay Code: SC3+D, Dose Response: With dose response, Evaluation Type: Evaluation B (Post-1980)) was “active; positive”, the mutagenic call [8] was “inactive; negative” and the mutagenic call [9] was “active; positive”. The mutagenic call (Species/Cell Type: Syrian hamster embryo (SHE) cells, Assay Type: Cell transformation, clonal assay, Assay Code: CTCT, Evaluation Type: Evaluation A (Pre-1980)) was “no conclusion”.

For CN(C)c1ccc2nc3c(C(=O)O)cc(=O)c(O)c-3oc2c1, the mutagenic call [10] was “no conclusion”.

In the case of Cc1cccc2c1ccc1c3ccccc3ccc21, the mutagenic call [11] is reported as “active; positive”.

With CC1(C)S[C@@H]2[C@H](NC(=O)Cc3ccccc3)C(=O)N2[C@H]1C(=O)O the mutagenic call [10] was “no conclusion” and the mutagenic call (Species/Cell Type: Salmonella typhimurium (one or more of the five standard strains: TA98, TA100, TA1535, TA1537, and TA1538), Assay Type: Histidine reverse gene mutation, Ames assay, Assay Code: SAL-, Evaluation Type: Evaluation A (Pre-1980)) was “inactive; negative”.

With C[As](SC#N)SC#N the mutagenic call (Species/Cell Type: Bacillus subtilis (H17 vs M45), Assay Type: Rec-assay, spot test, DNA effects (bacterial DNA repair), Assay Code: REW+, Evaluation Type: Evaluation A (Pre-1980)) was “active; positive”.

In the case of CCCCOCC1CO1 (configuration not stated), the mutagenic call (Species/Cell Type: Mammalian polychromatic erythrocytes, Assay Type: Micronucleus test, chromosome aberrations, Assay Code: MNT+, Evaluation Type: Evaluation B (Post-1980)) is reported as “active; positive”.

With CC1=C(/C=C/C(C)=C/C=C/C(C)=C\C(=O)O)C(C)(C)CCC1 the mutagenic call (Species/Cell Type: Human, Assay Type: Sister-chromatid exchange (SCE) in vitro, Assay Code: SC1+D, Dose Response: With dose response, Evaluation Type: Evaluation B (Post-1980)) was “active; positive”.

With CS(=O)(=O)OCCO the mutagenic call (Species/Cell Type: Arabidopsis species, Assay Type: Gene mutation, Assay Code: ARM+D, Dose Response: With dose response, Evaluation Type: Evaluation A (Pre-1980)) was “active; positive” and the mutagenic call (Species/Cell Type: Hordeum vulgare (barley), Assay Type: Chromosome aberrations, Assay Code: HOC+D, Dose Response: With dose response, Evaluation Type: Evaluation A (Pre-1980)) was “active; positive”.

For [Cl][Ag], the mutagenic call (Species/Cell Type: Bacillus subtilis (H17 vs M45), Assay Type: Rec-assay, spot test, DNA effects (bacterial DNA repair), Assay Code: REW-, Evaluation Type: Evaluation A (Pre-1980)) was “inactive; negative”.

In the case of O=[N+]([O-])c1ccc(-c2nc(NCC(O)CO)c3ccccc3n2)s1 (configuration not stated), the mutagenic call [12] is reported as “no conclusion”.

In the case of OCc1ccco1, the mutagenic call [4] is reported as “no conclusion” and the mutagenic call [6] is reported as “no conclusion”.

For NC(=O)N1c2ccccc2[C@H](O)[C@@H](O)c2ccccc21, the mutagenic call (Species/Cell Type: Human lymphocytes, Assay Type: Sister-chromatid exchange (SCE) in vitro, Assay Code: SCL+, Evaluation Type: Evaluation B (Post-1980)) was “active; positive” and the mutagenic call (Species/Cell Type: Human, Assay Type: Sister-chromatid exchange (SCE) in vitro, Assay Code: SC1+, Evaluation Type: Evaluation B (Post-1980)) was “active; positive”.

c1ccc2cc3c(ccc4ccccc43)cc2c1 was tested, and the mutagenic call (Species/Cell Type: Chinese hamster lung (V79) cells, Assay Type: Forward gene mutation at the HPRT or ouabain locus, Assay Code: V79+*, Activation: With metabolic activation, Evaluation Type: Evaluation A (Pre-1980)) was “active; positive”, the mutagenic call [10] was “no conclusion” and the mutagenic call [2] was “no conclusion”. For the same molecule, the mutagenic call (Species/Cell Type: Fischer rat embryo (RLV/1706) cells, Assay Type: Cell transformation, viral enhanced, Assay Code: CTR+, Evaluation Type: Evaluation A (Pre-1980)) was “active; positive”, the mutagenic call (Species/Cell Type: Human diploid fibroblasts, Assay Type: Unscheduled DNA synthesis (UDS) in vitro, DNA effects, Assay Code: UDHT, Evaluation Type: Evaluation A (Pre-1980)) was “no conclusion” and the mutagenic call (Species/Cell Type: Mouse (BALB/c-3T3) cells, Assay Type: Cell transformation, Assay Code: CTB-, Evaluation Type: Evaluation A (Pre-1980)) was “inactive; negative”. For the same molecule, the mutagenic call (Species/Cell Type: Mouse prostate cells, Assay Type: Cell transformation, Assay Code: CTM+, Evaluation Type: Evaluation A (Pre-1980)) was “active; positive”, the call (Species/Cell Type: Nonhuman, Assay Code: CCG+, Evaluation Type: Evaluation A (Pre-1980)) was “active; positive” and the mutagenic call (Species/Cell Type: Nonhuman, Assay Type: Sister-chromatid exchange (SCE) in vitro, Assay Code: SC2+, Evaluation Type: Evaluation B (Post-1980)) was “active; positive”. For the same molecule, the mutagenic call (Species/Cell Type: Nonhuman, Assay Type: Sister-chromatid exchange (SCE) in vivo, Assay Code: SC3+, Evaluation Type: Evaluation B (Post-1980)) was “active; positive”, the mutagenic call (Species/Cell Type: Nonhuman, Assay Type: Sister-chromatid exchange (SCE) in vivo, Assay Code: SC3T, Evaluation Type: Evaluation A (Pre-1980)) was “no conclusion” and the mutagenic call (Species/Cell Type: Rat primary hepatocytes, Assay Type: Unscheduled DNA synthesis (UDS) in vitro, DNA effects, Assay Code: UDP-, Evaluation Type: Evaluation A (Pre-1980)) was “inactive; negative”. For the same molecule, the mutagenic call [8] was “inactive; negative”, the mutagenic call [11] was “active; positive” and the mutagenic call (Species/Cell Type: Salmonella typhimurium, Assay Type: Forward and reverse gene mutation, host-mediated assay, Assay Code: HMA+, Evaluation Type: Evaluation A (Pre-1980)) was “active; positive”. For the same molecule, the mutagenic call (Species/Cell Type: Syrian hamster embryo (SHE) cells, Assay Type: Cell transformation, clonal assay, Assay Code: CTC+, Evaluation Type: Evaluation A (Pre-1980)) was “active; positive”.

For CCNC1(c2ccccc2)CCCCC1, the mutagenic call [9] was “active; positive”.

In the case of CS(=O)(=O)OCCNC[C@@H](O)[C@@H](O)CNCCOS(C)(=O)=O, the mutagenic call [3] is reported as “active; positive” and the mutagenic call [5] is reported as “active; positive”.

For ClCCNCCCNc1c2ccccc2nc2ccccc12, the mutagenic call [1] was “active; positive”.

For FC(F)OC(Cl)C(F)(F)F (configuration not stated), the mutagenic call (Species/Cell Type: Mouse, Sex: Male, Assay Type: Sperm morphology, Assay Code: SPI-, Evaluation Type: Evaluation A (Pre-1980)) was “inactive; negative”, the mutagenic call (Species/Cell Type: Nonhuman, Assay Type: Sister-chromatid exchange (SCE) in vitro, Assay Code: SC2T, Evaluation Type: Evaluation B (Post-1980)) was “no conclusion” and the mutagenic call [12] was “no conclusion”.

Cc1cc2cc3c(C)cc(=O)oc3c(C)c2o1 was tested, and the mutagenic call (Species/Cell Type: Human lymphocytes, Assay Type: Sister-chromatid exchange (SCE) in vitro, Assay Code: SCLT, Evaluation Type: Evaluation A (Pre-1980)) was “no conclusion” and the mutagenic call (Species/Cell Type: Human, Assay Type: Sister-chromatid exchange (SCE) in vitro, Assay Code: SC1T, Evaluation Type: Evaluation A (Pre-1980)) was “no conclusion”.

With FC(F)Cl the mutagenic call (Species/Cell Type: Tradescantia species, Assay Type: Gene mutation, Assay Code: TRM+D, Dose Response: With dose response, Evaluation Type: Evaluation A (Pre-1980)) was “active; positive”.

For OCCS, the mutagenic call [7] was “active; positive”.
